From patent US11014911B2, “CDK2 inhibitors” (Pfizer Inc., priority 2019, dated 2021)

Biological target: CDK2/Cyclin E1 full length (Homo sapiens (Human), UniProt P24941)
Test: CDK2/Cyclin E1 full length mobility shift assay
Format: biochemical

| SMILES | Ki [nM] |
| --- | --- |
| O=C(Cc1ccc(F)cc1)Nc1cc([C@H]2CC[C@@H](OC(=O)NCC(F)F)C2)[nH]n1 [Example 248, (1R,3S)-3-(3-{[(4-fluorophenyl)acetyl]amino}-1H-pyrazol-5-yl)cyclopentyl (2,2-difluoroethyl)carbamate] | 2.41 |
| CC(C)NC(=O)O[C@@H]1CC[C@H](c2cc(NC(=O)Cc3cccc4scnc34)n[nH]2)C1 [Example 283, (1R,3S)-3-{3-[(1,3-benzothiazol-4-ylacetyl)amino]-1H-pyrazol-5-yl}cyclopentyl propan-2-ylcarbamate] | 4.6 |
| O=C(Cc1ccno1)Nc1cc([C@H]2CC[C@@H](OC(=O)NC3CCC3)C2)[nH]n1 [Example 458, (1R,3S)-3-{3-[(1,2-oxazol-5-ylacetyl)amino]-1H-pyrazol-5-yl}cyclopentyl cyclobutylcarbamate] | 3.07 |
| COC[C@H](C)NC(=O)O[C@@H]1CC[C@H](c2cc(NC(=O)Cc3cnc(OC)cn3)n[nH]2)C1 [Example 520, (1R,3S)-3-(3-{[(5-methoxypyrazin-2-yl)acetyl]amino}-1H-pyrazol-5-yl)cyclopentyl [(2S)-1-methoxypropan-2-yl]carbamate] | 2.88 |
| CN1CC(CNC(=O)O[C@H]2CC[C@@H](c3cc(NC(=O)Cc4cc(F)cc(F)c4)n[nH]3)C2)OCC1=O (single isomer, unassigned) [Example 583] | 2.71 |
| CC1(NC(=O)O[C@@H]2CC[C@H](c3cc(NC(=O)Cc4ccccn4)n[nH]3)C2)CC1 [Example 420, (1R,3S)-3-{3-[(pyridin-2-ylacetyl)amino]-1H-pyrazol-5-yl}cyclopentyl (1-methylcyclopropyl)carbamate] | 0.54 |
| Cc1cc(CC(=O)Nc2cc([C@@H]3CC[C@H](OC(=O)NC(C)C)C3)[nH]n2)no1 [Example 268, (1S,3R)-3-(3-{[(5-methyl-1,2-oxazol-3-yl)acetyl]amino}-1H-pyrazol-5-yl)cyclopentyl propan-2-ylcarbamate] | 0.97 |
| Cc1cnc(CC(=O)Nc2cc([C@H]3CC[C@@H](OC(=O)N(C)C(C)C)C3)[nH]n2)o1 [Example 290, (1R,3S)-3-(3-{[(5-methyl-1,3-oxazol-2-yl)acetyl]amino}-1H-pyrazol-5-yl)cyclopentyl methyl(propan-2-yl)carbamate] | 1.45 |
| CCCNC(=O)O[C@H]1CC[C@@H](c2cc(NC(=O)Cc3c[nH]cn3)n[nH]2)C1 [Example 165, (1S,3R)-3-{3-[(1H-imidazol-4-ylacetyl)amino]-1H-pyrazol-5-yl}cyclopentyl propylcarbamate] | 2.28 |
| CC[C@H](C)NC(=O)O[C@@H]1CC[C@H](c2cc(NC(=O)Cc3c(S(C)(=O)=O)c4ccccc4n3C)n[nH]2)C1 [Example 377, (1R,3S)-3-[3-({[1-methyl-3-(methylsulfonyl)-1H-indol-2-yl]acetyl}amino)-1H-pyrazol-5-yl]cyclopentyl (2S)-butan-2-ylcarbamate] | 1.14 |
| CCCNC(=O)O[C@@H]1CC[C@H](c2cc(NC(=O)Cc3cc(C)ncc3S(C)(=O)=O)n[nH]2)C1 [Example 208, (1R,3S)-3-[3-({[2-methyl-5-(methylsulfonyl)pyridin-4-yl]acetyl}amino)-1H-pyrazol-5-yl]cyclopentyl propylcarbamate] | 3.18 |
| COc1cc(C(=O)Nc2cc([C@H]3CC[C@@H](OC(=O)NC4(C)CCOC4)C3)[nH]n2)n(C)n1 (single isomer, unassigned) [Example 480] | 2.01 |
| COc1cc(CC(=O)Nc2cc([C@@H]3CC[C@H](OC(N)=O)C3)[nH]n2)ccn1 [Example 257, (1S,3R)-3-(3-{[(2-methoxypyridin-4-yl)acetyl]amino}-1H-pyrazol-5-yl)cyclopentyl carbamate] | 4.2 |
| CC(CC(F)(F)F)N(C)C(=O)O[C@@H]1CC[C@H](c2cc(NC(=O)c3cnnn3C)n[nH]2)C1 (single isomer, unassigned) [Example 412] | 0.19 |
| CC1(NC(=O)O[C@@H]2CC[C@H](c3cc(NC(=O)Cc4cn(CC(F)(F)F)nn4)n[nH]3)C2)CC1 [Example 446, (1R,3S)-3-[3-({[1-(2,2,2-trifluoroethyl)-1H-1,2,3-triazol-4-yl]acetyl}amino)-1H-pyrazol-5-yl]cyclopentyl (1-methylcyclopropyl)carbamate] | 1.7 |
| O=C(Cc1cc(F)cc(F)c1)Nc1cc([C@@H]2CC[C@H](OC(=O)NC[C@@H]3C[C@H]3CO)C2)[nH]n1 [Example 578, (1S,3R)-3-(3-{[(3,5-difluorophenyl)acetyl]amino}-1H-pyrazol-5-yl)cyclopentyl {[(1R,2R)-2-(hydroxymethyl)cyclopropyl]-methyl}carbamate] | 3.64 |
| CCCNC(=O)O[C@@H]1CC[C@H](c2cc(NC(=O)Cc3ccccc3S(=O)(=O)C3CC3)n[nH]2)C1 [Example 210, (1R,3S)-3-[3-({[2-(cyclopropylsulfonyl)-phenyl]acetyl}amino)-1H-pyrazol-5-yl]cyclopentyl propylcarbamate] | 3.8 |

| SMILES | Ki [nM] |
| --- | --- |
| CC(C)(C)CNC(=O)O[C@@H]1CC[C@H](c2cc(NC(=O)Cc3ccno3)n[nH]2)C1 [Example 418, (1R,3S)-3-{3-[(1,2-oxazol-5-ylacetyl)amino]-1H-pyrazol-5-yl}cyclopentyl (2,2-dimethylpropyl)carbamate] | 2.69 |
| C[C@H]1CCN1C(=O)O[C@@H]1CC[C@H](c2cc(NC(=O)Cc3cnn(C)c3)n[nH]2)C1 [Example 588, (1R,3S)-3-(3-{[(1-methyl-1H-pyrazol-4-yl)acetyl]amino}-1H-pyrazol-5-yl)cyclopentyl (2S)-2-methylazetidine-1-carboxylate] | 0.75 |
| CC[C@H](C)NC(=O)O[C@@H]1CC[C@H](c2cc(NC(=O)Cc3cn(C(C)C)nn3)n[nH]2)C1 [Example 350, (1R,3S)-3-[3-({[1-(propan-2-yl)-1H-1,2,3-triazol-4-yl]acetyl}amino)-1H-pyrazol-5-yl]cyclopentyl (2S)-butan-2-ylcarbamate] | 3.45 |
| COc1cc(C(=O)Nc2cc([C@H]3CC[C@@H](OC(=O)N[C@@H](C)CC(F)(F)F)C3)[nH]n2)n(C)n1 [Example 94] | 0.15 |
| COc1cc(CC(=O)Nc2cc([C@H]3CC[C@@H](OC(=O)N[C@@H](C)[C@H](C)F)C3)[nH]n2)ccn1 (single isomer, unassigned) [Example 384, (1R,3S)-3-(3-{[(2-methoxypyridin-4-yl)acetyl]amino}-1H-pyrazol-5-yl)cyclopentyl [(2S*,3S*)-3-fluorobutan-2-yl]carbamate] | 1.24 |
| CCCNC(=O)O[C@@H]1CC[C@H](c2cc(NC(=O)Cc3ccc(C)cc3S(C)(=O)=O)n[nH]2)C1 [Example 207, (1R,3S)-3-[3-({[4-methyl-2-(methylsulfonyl)phenyl]acetyl}amino)-1H-pyrazol-5-yl]cyclopentyl propylcarbamate] | 0.66 |
| CC[C@H](C)NC(=O)O[C@@H]1CC[C@H](c2cc(NC(=O)Cc3cnc(OC)cn3)n[nH]2)C1 [Example 347, (1R,3S)-3-(3-{[(5-methoxypyrazin-2-yl)acetyl]amino}-1H-pyrazol-5-yl)cyclopentyl (2S)-butan-2-ylcarbamate] | 0.37 |
| CC1(NC(=O)O[C@@H]2CC[C@H](c3cc(NC(=O)Cc4ccc(C(F)(F)F)cn4)n[nH]3)C2)CC1 [Example 445, (1R,3S)-3-[3-({[5-(trifluoromethyl)pyridin-2-yl]acetyl}amino)-1H-pyrazol-5-yl]cyclopentyl (1-methylcyclopropyl)carbamate] | 0.6 |
| Cc1nc(CC(=O)Nc2cc([C@H]3CC[C@@H](OC(=O)NC(C)C)C3)[nH]n2)ccc1Cl [Example 282, (1R,3S)-3-(3-{[(5-chloro-6-methylpyridin-2-yl)acetyl]amino}-1H-pyrazol-5-yl)cyclopentyl propan-2-ylcarbamate] | 2.34 |
| Cn1ncc(CC(=O)Nc2cc([C@H]3CC[C@@H](OC(=O)NCCC(F)(F)F)C3)[nH]n2)n1 [Example 217, (1R,3S)-3-(3-{[(2-methyl-2H-1,2,3-triazol-4-yl)acetyl]amino}-1H-pyrazol-5-yl)cyclopentyl (3,3,3-trifluoropropyl)carbamate] | 2.22 |
| O=C(Cc1ccc(C(F)(F)F)nc1)Nc1cc([C@@H]2CC[C@H](OC(=O)NCC3CCOCC3)C2)[nH]n1 [Example 514, (1S,3R)-3-[3-({[6-(trifluoromethyl)pyridin-3-yl]acetyl}amino)-1H-pyrazol-5-yl]cyclopentyl (tetrahydro-2H-pyran-4-ylmethyl)carbamate] | 2.78 |
| Cc1ccnc(CC(=O)Nc2cc([C@H]3CC[C@@H](OC(=O)NC(C)(C)C)C3)[nH]n2)c1Cl [Example 313, (1R,3S)-3-(3-{[(3-chloro-4-methylpyridin-2-yl)acetyl]amino}-1H-pyrazol-5-yl)cyclopentyl tert-butylcarbamate] | 0.63 |
| Cc1cnc(CC(=O)Nc2cc([C@H]3CC[C@@H](OC(=O)NC(C)C)C3)[nH]n2)o1 [Example 271, (1R,3S)-3-(3-{[(5-methyl-1,3-oxazol-2-yl)acetyl]amino}-1H-pyrazol-5-yl)cyclopentyl propan-2-ylcarbamate] | 1.57 |
| CCCNC(=O)O[C@@H]1CC[C@H](c2cc(NC(=O)Cc3ccccc3S(=O)(=O)C(C)C)n[nH]2)C1 [Example 211, (1R,3S)-3-[3-({[2-(propan-2-ylsulfonyl)phenyl]acetyl}amino)-1H-pyrazol-5-yl]cyclopentyl propylcarbamate] | 4.87 |
| COc1cc(CC(=O)Nc2cc([C@@H]3CC[C@H](OC(=O)NCC4CCOCC4)C3)[nH]n2)ccn1 [Example 512, (1S,3R)-3-(3-{[(2-methoxypyridin-4-yl)acetyl]amino}-1H-pyrazol-5-yl)cyclopentyl (tetrahydro-2H-pyran-4-ylmethyl)carbamate] | 3.2 |
| CC(C)NC(=O)O[C@@H]1CC[C@H](c2cc(NC(=O)Cc3cccc4ncsc34)n[nH]2)C1 [Example 284, (1R,3S)-3-{3-[(1,3-benzothiazol-7-ylacetyl)amino]-1H-pyrazol-5-yl}cyclopentyl propan-2-ylcarbamate] | 0.6 |
| CCNC(=O)O[C@@H]1CC[C@H](c2cc(NC(=O)Cc3ccc(F)cc3)n[nH]2)C1 [Example 228, (1R,3S)-3-(3-{[(4-fluorophenyl)acetyl]amino}-1H-pyrazol-5-yl)cyclopentyl ethylcarbamate] | 1.84 |
